Like-named read-outs stand apart in the source and are kept apart here.
Assays:
[1] = Text: Chemical stability of the hemifumarate form of tenofovir alafenamide was compared with the monofumarate form. […] Conditions evaluated include temperature, relative humidity (RH), and the open or closed state of the container cap.
[2] = for Thermodynamic stability: solvents such as ACN, toluene, MTBE, acetone, THF, 2-methyl THF
[3] = remark: listed apart in the source
Method: DVS analysis was conducted using 4.951 mg of tenofovir alafenamide hemifumarate. The material was kept at 25° C. in nitrogen at humidities ranging from 10% to 90% relative humidity; each step was equilibrated for 120 minutes.

[4] = 40° C./75% RH Cap Closed, 0 weeks
[5] = 40° C./75% RH Cap Closed, 1 week
[6] = 40° C./75% RH Cap Closed, 2 weeks
[7] = 40° C./75% RH Cap Closed, 4 weeks
[8] = 40° C./75% RH Cap Closed, 8 weeks
[9] = 40° C./75% RH Cap Open, 0 weeks
[10] = 40° C./75% RH Cap Open, 2 weeks
[11] = 40° C./75% RH Cap Open, 4 weeks
[12] = 40° C./75% RH Cap Open, 8 weeks

Compound	% TA Area Normalized [1, 4] [%]	% Total Deg. Products [1, 4] [%]	% TA Area Normalized [1, 5] [%]	% Total Deg. Products [1, 5] [%]	% TA Area Normalized [1, 6] [%]	% Total Deg. Products [1, 6] [%]	% TA Area Normalized [1, 7] [%]	% Total Deg. Products [1, 7] [%]	% TA Area Normalized [1, 8] [%]	% Total Deg. Products [1, 8] [%]	% TA Area Normalized [1, 9] [%]	% Total Deg. Products [1, 9] [%]	% TA Area Normalized ([1]; 40° C./75% RH Cap Open, 1 week) [%]	% Total Deg. Products ([1]; 40° C./75% RH Cap Open, 1 week) [%]	% TA Area Normalized [1, 10] [%]	% Total Deg. Products [1, 10] [%]	% TA Area Normalized [1, 11] [%]	% Total Deg. Products [1, 11] [%]	% TA Area Normalized [1, 12] [%]	% Total Deg. Products [1, 12] [%]	further results
CC(C)OC(=O)[C@H](C)N[P@](=O)(CO[C@H](C)Cn1cnc2c(N)ncnc21)Oc1ccccc1 [Monofumarate form, 9-[(R)-2-[[(S)-[[(S)-1-(isopropoxycarbonyl)ethyl]amino]phenoxyphosphinyl]methoxy]propyl]adenine]	97.1	0.69	97.0	0.87	96.6	1.18	96.4	1.49	95.4	2.36	97.1	0.69	96.9	0.90	96.6	1.10	96.2	1.67	95.0	2.74	% TA Area Normalized ([1]; 70° C. Cap Closed, 0 weeks): 97.1%; % Total Deg. Products ([1]; 70° C. Cap Closed, 0 weeks): 0.69%; % TA Area Normalized ([1]; 70° C. Cap Closed, 2 weeks): 96.2%; % Total Deg. Products ([1]; 70° C. Cap Closed, 2 weeks): 1.83%; % TA Area Normalized ([1]; 70° C. Cap Closed, 4 weeks): 93.3%; % Total Deg. Products ([1]; 70° C. Cap Closed, 4 weeks): 4.78%; Form conversion when suspended in solvent ([2]; ACN, ethyl acetate, MTBE and acetone): partially converts to the hemifumarate form; Form conversion when suspended in solvent ([2]; THF and 2-methyl THF): fully converts to the hemifumarate form; Thermodynamic stability ([2]; ethyl acetate): not thermodynamically stable
CC(C)OC(=O)[C@H](C)N[P@](=O)(CO[C@H](C)Cn1cnc2c(N)ncnc21)Oc1ccccc1 [Hemifumarate form, 9-[(R)-2-[[(S)-[[(S)-1-(isopropoxycarbonyl)ethyl]amino]phenoxyphosphinyl]methoxy]propyl]adenine]	98.4	0.05	98.4	0.14	98.5	0.14	98.4	0.25	98.0	0.49	98.4	0.05	98.5	0.15	98.5	0.14	98.4	0.26	98.1	0.50	% TA Area Normalized ([1]; 70° C. Cap Closed, 0 weeks): 98.4%; % Total Deg. Products ([1]; 70° C. Cap Closed, 0 weeks): 0.05%; % TA Area Normalized ([1]; 70° C. Cap Closed, 2 weeks): 98.5%; % Total Deg. Products ([1]; 70° C. Cap Closed, 2 weeks): 0.22%; % TA Area Normalized ([1]; 70° C. Cap Closed, 4 weeks): 98.4%; % Total Deg. Products ([1]; 70° C. Cap Closed, 4 weeks): 0.33%; Hygroscopicity ([3]; 25° C. in nitrogen, 10% to 90% relative humidity): nonhygroscopic; Water absorbed ([3]; 25° C., relative humidity of 90%): 0.65%; Thermodynamic stability ([2]; ethyl acetate, listed as tenofovir alafenamide hemifumarate): thermodynamically stable in most solvents

— patent US9296769B2, “Tenofovir alafenamide hemifumarate” (Gilead Sciences, Inc., priority 2011, dated 2016)
